# Assay results as given in patent US9303064B2, “Peptide inhibiting matrix metalloproteanases activity and use thereof” (CAREGEN CO., LTD., priority 2011, dated 2016).
# Tested on: Hyaluronate lyase
# Assay: Filler product injected into rat dorsal skin
# Type: in vivo
# Details: 1-7 days, FIG. 6e
# Method: FIG. 6e represents effects on residence times of filler products when the filler product containing hyaluronate lyase and the peptide (SEQ ID NO:2) is injected to rat dorsal skin. The effects were determined at intervals of 1-7 days.
# Hyaluronate lyase was artificially put into a commercial filler product at a concentration of 100 ug to induce degradation of hyaluronic acids, and then 200 ug peptides were treated. […] An assay using GPC column and an in vivo experiment using rats are performed. Control group was treated with hyaluronate lyase, and treatment group was co-treated hyaluronate lyase and each peptide. When the filler product was injected into rat skin, the degradation of hyaluronic acids inside the filler was inhibited by the treatment of peptides (FIG. 6e).
sequence,measurement,setting,value
MIPCYISSP (CG-Seperin) [SEQ ID NO:2],degradation of hyaluronic acids inside the filler injected into rat skin,filler with hyaluronate lyase and peptide,hyaluronic acids degradation effect is excellent
same,residence times of filler products,versus only filler products,stayed for longer period
